# Measured values published in ChEMBL document CHEMBL1140476 (Bioorg Med Chem, 2007).
# Calls of active or inactive are those of the source. The calls are words filed in the database; no cut-off is given here.
# Legend:
# Escherichia coli [1] = assay: Inhibition of Escherichia coli DnaB helicase at 60 uM
# [2] = Inhibition of Escherichia coli DnaB helicase in presence of 150 uM ATP
# Escherichia coli [3] = assay: Inhibition of Escherichia coli DnaB helicase at 12 uM
# [4] = Inhibition of Escherichia coli DnaB helicase in presence of 1 mM ATP
# Escherichia coli [5] = assay: Inhibition of Escherichia coli DnaB helicase at 6 uM
# Escherichia coli [6] = assay: Inhibition of Escherichia coli DnaB helicase-stimulated primer synthesis
# Escherichia coli [7] = assay: Inhibition of Escherichia coli DnaB helicase at 30 uM
structure (smiles),measurement,setting,value
O=c1c(O)c(-c2cc(O)c(O)c(O)c2)oc2cc(O)cc(O)c12 [MYRICETIN],Km,Escherichia coli [1],4.5 µM
same,Vmax,Escherichia coli [1],0.35 µM/s
same,IC50,[2],10.2 µM
same,Km,Escherichia coli [3],2.9 µM
same,Vmax,Escherichia coli [3],1.06 µM/s
same,IC50,[4],11.3 µM
same,Km,Escherichia coli [5],17 µM
same,Vmax,Escherichia coli [5],1.64 µM/s
same,Activity,Escherichia coli [6],Active
same,Km,Escherichia coli [7],2.3 µM
same,Vmax,Escherichia coli [7],0.61 µM/s
